Measured values reported in patent US20110117081A1, “FUNCTIONALIZED PYRROLIDINES AND USE THEREOF AS IAP INHIBITORS” (priority 2008, published 2011).
pEC50: −log10 of the molar value.

Assays:
[1] = system: Colorectal carcinoma HCT116 cells; assay: HCT116 + ETR1 cell viability assay (MTT); assay type: cell-based; details: with ETR1 (40 ng/ml), 72 hrs
Protocol: Colorectal carcinoma HCT116 cells (ATCC# CCL-247) were cultured as monolayers in 96 well plates at a density of 2000 cells per well in 100 ul of McCoy's 5a medium (HyClone) supplemented with 2.2 g/L sodium bicarbonate (Gibco), 10% FBS (HyClone) and 1% penecillin/streptomycin (HyClone) for 24 hours. Triplicate wells of cells were treated for 72 hrs at 37° C. (5% CO2) with 50 ul of HGS agonistic Trail receptor antibody, ETR1 (40 ng/ml) in combination with 50 ul of diluted compound (0.01 to 10000 nM). Metabolic viability of remaining cells was assessed by MTT assay.
(§1) The percentage viability of compound-treated cells was expressed as a fraction of the absorbance/luminescence signal obtained from non-treated cells. EC50 values (corresponding to 50% cell survival in the presence of compound as compared to untreated controls) were calculated from MTT survival curves (HCT116 and SKOV3) using BioAssay software (CambridgeSoft) and from Cell Titer-Glo survival curves (synovioycte and Jurkat cells) using GraphPad Prism (Graph Pad Software Inc.). In the below chart, EC50 values are summarized as follows: a=EC50 of less than 10 nM; b=EC50 of 10-100 nM; and c=EC50 of greater than 100 nM.

[2] = system: Ovarian adenocarcinoma SKOV3 cells; assay: SKOV3 cell viability assay (MTT); assay type: cell-based; details: Homo sapiens, SK-OV-3, 72 hours
Protocol: Ovarian adenocarcinoma SKOV3 cells (ATCC# HTB-77) were cultured as monolayers in McCoy's 5a medium (HyClone) supplemented with 2.2 g/L sodium bicarbonate (Gibco), 10% FBS (HyClone) and 1% penicillin/streptomycin (HyClone). Cells were seeded in tissue culture-treated 96 well plates at 5000 cells/well in 150 ul of media. After 24 hours, triplicate wells of cells were treated with various concentrations of compound (0.01 to 10000 nM) diluted in 50 ul of culture media. Cells were incubated at 37° C. (5% CO2) in the presence of compound for 72 hours. Metabolic viability of remaining cells was assessed by MTT (thiazolyl blue tetrazolium bromide, Sigma) assay. 20 ul of MTT reagent (10 mg/ml) was added per well and plates were incubated for 4 hours at 37° C. (5% CO2). The supernatant was then removed from the plate. The converted MTT product was solubilized with 100 uL of isopropanol and the absorbance was read at 570 nm using a Tecan spectrophotometer.
as §1

SMILES | pEC50 [1] | pEC50 [2]
CN[C@@H](C)C(=O)N[C@H](C(=O)N1C[C@@H](NC(=O)c2ccc(C(=O)N[C@H]3C[C@@H](C(=O)N4CCCC[C@@H]4c4ccccc4)N(C(=O)[C@@H](NC(=O)[C@H](C)NC)C4CCCCC4)C3)cc2)CC1C(=O)N1CCCC[C@@H]1c1ccccc1)C1CCCCC1 (some centres unmarked) [Compound 28] | 7.00 to 8.00 | 7.00 to 8.00
CN[C@@H](C)C(=O)N[C@H](C(=O)N1C[C@@H](NC(=O)c2ccc(-c3ccc(C(=O)N[C@H]4C[C@@H](C(=O)N[C@@H]5CCc6ccccc65)N(C(=O)[C@@H](NC(=O)[C@H](C)NC)C5CCCCC5)C4)cc3)cc2)C[C@H]1C(=O)N[C@@H]1CCc2ccccc21)C1CCCCC1 [Compound 10] | > 8.00 | > 8.00
CN[C@@H](C)C(=O)N[C@H](C(=O)N1C[C@@H](NC(=O)c2ccc(C(=O)N[C@H]3C[C@@H](C(=O)N[C@@H]4CCc5ccccc54)N(C(=O)[C@@H](NC(=O)[C@H](C)NC)C4CCCCC4)C3)cc2)C[C@H]1C(=O)N[C@@H]1CCc2ccccc21)C1CCCCC1 [Compound 6] | > 8.00 | > 8.00
CN[C@@H](C)C(=O)N[C@H](C(=O)N1C[C@@H](NC(=O)c2ccc(C(=O)N[C@H]3C[C@@H](C(=O)N[C@@H]4CCOc5ccc(F)cc54)N(C(=O)[C@@H](NC(=O)[C@H](C)NC)C4CCCCC4)C3)cc2)CC1C(=O)N[C@@H]1CCOc2ccc(F)cc21)C1CCCCC1 (some centres unmarked) [Compound 25] | > 8.00 | 7.00 to 8.00
CN[C@@H](C)C(=O)N[C@H](C(=O)N1C[C@@H](NC(=O)c2ccc(C(=O)N[C@H]3C[C@@H](C(=O)N[C@H](Cc4ccccc4)c4ccccc4)N(C(=O)[C@@H](NC(=O)[C@H](C)NC)C4CCCCC4)C3)cc2)C[C@H]1C(=O)N[C@H](Cc1ccccc1)c1ccccc1)C1CCCCC1 [Compound 14] | > 8.00 | 7.00 to 8.00
CN[C@@H](C)C(=O)N[C@H](C(=O)N1C[C@@H](NC(=O)C2CCC(C(=O)N[C@H]3C[C@@H](C(=O)N[C@@H]4CCOc5ccccc54)N(C(=O)[C@@H](NC(=O)[C@H](C)NC)C4CCCCC4)C3)CC2)C[C@H]1C(=O)N[C@@H]1CCOc2ccccc21)C1CCCCC1 (some centres unmarked) [Compound 32] | > 8.00 | > 8.00
CN[C@@H](C)C(=O)N[C@H](C(=O)N1C[C@@H](NC(=O)c2ccc(C(=O)N[C@H]3C[C@@H](C(=O)N[C@H](CCCc4ccccc4)c4ccccc4)N(C(=O)[C@@H](NC(=O)[C@H](C)NC)C4CCCCC4)C3)cc2)C[C@H]1C(=O)N[C@H](CCCc1ccccc1)c1ccccc1)C1CCCCC1 [Compound 8] | 7.00 to 8.00 | < 7.00
CN[C@@H](C)C(=O)N[C@H](C(=O)N1C[C@@H](NC(=O)c2ccc3cc(C(=O)N[C@H]4C[C@@H](C(=O)NC(c5ccccc5)c5ccccc5)N(C(=O)[C@@H](NC(=O)[C@H](C)NC)C5CCCCC5)C4)ccc3c2)C[C@H]1C(=O)NC(c1ccccc1)c1ccccc1)C1CCCCC1 [Compound 23] | > 8.00 | > 8.00
CN[C@@H](C)C(=O)N[C@H](C(=O)N1C[C@@H](NC(=O)C2CCC(C(=O)N[C@H]3C[C@@H](C(=O)N[C@@H]4CCCc5ccccc54)N(C(=O)[C@@H](NC(=O)[C@H](C)NC)C4CCCCC4)C3)CC2)C[C@H]1C(=O)N[C@@H]1CCCc2ccccc21)C1CCCCC1 (some centres unmarked) [Compound 4] | > 8.00 | > 8.00
CN[C@@H](C)C(=O)N[C@H](C(=O)N1C[C@@H](NC(=O)c2ccc(C(=O)N[C@H]3C[C@@H](C(=O)N[C@H](COCc4ccccc4)c4ccccc4)N(C(=O)[C@@H](NC(=O)[C@H](C)NC)C4CCCCC4)C3)cc2)C[C@H]1C(=O)N[C@H](COCc1ccccc1)c1ccccc1)C1CCCCC1 [Compound 18] | > 8.00 | 7.00 to 8.00
CN[C@@H](C)C(=O)N[C@H](C(=O)N1C[C@@H](NC(=O)C2CCC(C(=O)N[C@H]3C[C@@H](C(=O)N[C@@H]4CCOc5ccc(F)cc54)N(C(=O)[C@@H](NC(=O)[C@H](C)NC)C4CCCCC4)C3)CC2)C[C@H]1C(=O)N[C@@H]1CCOc2ccc(F)cc21)C1CCCCC1 (some centres unmarked) [Compound 24] | > 8.00 | 7.00 to 8.00
CN[C@@H](C)C(=O)N[C@H](C(=O)N1C[C@@H](NC(=O)c2ccc3cc(C(=O)N[C@H]4C[C@@H](C(=O)N[C@H](COCc5ccccc5)c5ccccc5)N(C(=O)[C@@H](NC(=O)[C@H](C)NC)C5CCCCC5)C4)ccc3c2)C[C@H]1C(=O)N[C@H](COCc1ccccc1)c1ccccc1)C1CCCCC1 [Compound 21] | > 8.00 | 7.00 to 8.00
CN[C@@H](C)C(=O)N[C@H](C(=O)N1C[C@@H](NC(=O)c2ccc(-c3ccc(C(=O)N[C@H]4C[C@@H](C(=O)N[C@H](COCc5ccccc5)c5ccccc5)N(C(=O)[C@@H](NC(=O)[C@H](C)NC)C5CCCCC5)C4)cc3)cc2)C[C@H]1C(=O)N[C@H](COCc1ccccc1)c1ccccc1)C1CCCCC1 [Compound 27] | > 8.00 | 7.00 to 8.00
CN[C@@H](C)C(=O)N[C@H](C(=O)N1C[C@@H](NC(=O)c2ccc(C(=O)N[C@H]3C[C@@H](C(=O)N[C@H](CCc4ccccc4)c4ccccc4)N(C(=O)[C@@H](NC(=O)[C@H](C)NC)C4CCCCC4)C3)cc2)C[C@H]1C(=O)N[C@H](CCc1ccccc1)c1ccccc1)C1CCCCC1 [Compound 16] | 7.00 to 8.00 | 7.00 to 8.00

More lines, now with the values ahead:

pEC50 [1] | pEC50 [2] | SMILES
> 8.00 | > 8.00 | CN[C@@H](C)C(=O)N[C@H](C(=O)N1C[C@@H](NC(=O)c2ccc(C(=O)N[C@H]3C[C@@H](C(=O)N[C@@H]4CCOc5ccccc54)N(C(=O)[C@@H](NC(=O)[C@H](C)NC)C4CCCCC4)C3)cc2)C[C@H]1C(=O)N[C@@H]1CCOc2ccccc21)C1CCCCC1 [Compound 31]
> 8.00 | > 8.00 | CN[C@@H](C)C(=O)N[C@H](C(=O)N1C[C@@H](NC(=O)c2ccc(C(=O)N[C@H]3C[C@@H](C(=O)NC(c4ccccc4)c4ccccc4)N(C(=O)[C@@H](NC(=O)[C@H](C)NC)C4CCCCC4)C3)cc2)C[C@H]1C(=O)NC(c1ccccc1)c1ccccc1)C1CCCCC1 [Compound 5]
> 8.00 | 7.00 to 8.00 | CN[C@@H](C)C(=O)N[C@H](C(=O)N1C[C@@H](NC(=O)c2ccc(-c3ccc(C(=O)N[C@H]4C[C@@H](C(=O)NC5c6ccccc6-c6ccccc65)N(C(=O)[C@@H](NC(=O)[C@H](C)NC)C5CCCCC5)C4)cc3)cc2)C[C@H]1C(=O)NC1c2ccccc2-c2ccccc21)C1CCCCC1 [Compound 12]
> 8.00 | > 8.00 | CN[C@@H](C)C(=O)N[C@H](C(=O)N1C[C@@H](NC(=O)c2ccc(C(=O)N[C@H]3C[C@@H](C(=O)NCc4ccccc4)N(C(=O)[C@@H](NC(=O)[C@H](C)NC)C4CCCCC4)C3)cc2)C[C@H]1C(=O)NCc1ccccc1)C1CCCCC1 [Compound 29]
> 8.00 | > 8.00 | CN[C@@H](C)C(=O)N[C@H](C(=O)N1C[C@@H](NC(=O)c2ccc(-c3ccc(C(=O)N[C@H]4C[C@@H](C(=O)N[C@@H]5CCCc6ccccc65)N(C(=O)[C@@H](NC(=O)[C@H](C)NC)C5CCCCC5)C4)cc3)cc2)C[C@H]1C(=O)N[C@@H]1CCCc2ccccc21)C1CCCCC1 [Compound 9]
> 8.00 | > 8.00 | CN[C@@H](C)C(=O)N[C@H](C(=O)N1C[C@@H](NC(=O)c2ccc(C(=O)N[C@H]3C[C@@H](C(=O)N[C@H](C)c4ccc(F)cc4)N(C(=O)[C@@H](NC(=O)[C@H](C)NC)C4CCCCC4)C3)cc2)CC1C(=O)N[C@H](C)c1ccc(F)cc1)C1CCCCC1 (some centres unmarked) [Compound 26]
> 8.00 | > 8.00 | CN[C@@H](C)C(=O)N[C@H](C(=O)N1C[C@@H](NC(=O)c2ccc(C(=O)N[C@H]3C[C@@H](C(=O)NC4c5ccccc5-c5ccccc54)N(C(=O)[C@@H](NC(=O)[C@H](C)NC)C4CCCCC4)C3)cc2)C[C@H]1C(=O)NC1c2ccccc2-c2ccccc21)C1CCCCC1 [Compound 15]
> 8.00 | > 8.00 | CN[C@@H](C)C(=O)N[C@H](C(=O)N1C[C@@H](NC(=O)c2ccc3cc(C(=O)N[C@H]4C[C@@H](C(=O)N[C@@H]5CCCc6ccccc65)N(C(=O)[C@@H](NC(=O)[C@H](C)NC)C5CCCCC5)C4)ccc3c2)C[C@H]1C(=O)N[C@@H]1CCCc2ccccc21)C1CCCCC1 [Compound 19]
> 8.00 | 7.00 to 8.00 | CN[C@@H](C)C(=O)N[C@H](C(=O)N1C[C@@H](NC(=O)C2CCC(C(=O)N[C@H]3C[C@@H](C(=O)NC4c5ccccc5-c5ccccc54)N(C(=O)[C@@H](NC(=O)[C@H](C)NC)C4CCCCC4)C3)CC2)C[C@H]1C(=O)NC1c2ccccc2-c2ccccc21)C1CCCCC1 (some centres unmarked) [Compound 2]
> 8.00 |  | CN[C@@H](C)C(=O)N[C@H](C(=O)N1C[C@@H](NC(=O)c2ccc(C(=O)N[C@H]3C[C@@H](C(=O)N[C@@H]4CCCc5cc(F)ccc54)N(C(=O)[C@@H](NC(=O)[C@H](C)NC)C4CCCCC4)C3)cc2)C[C@H]1C(=O)N[C@@H]1CCCc2cc(F)ccc21)C1CCCCC1 [Compound 40]
